COc1ccc2cccc(CCNC(C)=O)c2c1
solubility (mole fraction)
Details | in ethanol | in ethyl acetate | in isopropanol | in methanol | in n-butanol | in n-butyl acetate | in n-pentyl acetate | in n-propanol | in n-propyl acetate | in water
278.15 K | 0.0109 | 0.00662 | 0.00499 | 0.0192 | 0.00986 | 0.00323 | 0.00181 | 0.00905 | 0.00406 | 1.8e-05
283.15 K | 0.0169 | 0.00934 | 0.0107 | 0.0264 | 0.0147 | 0.00474 | 0.00281 | 0.016 | 0.00625 | 2.9e-05
288.15 K | 0.0235 | 0.0131 | 0.0186 | 0.0347 | 0.0214 | 0.00661 | 0.00432 | 0.0201 | 0.00886 | 4.59e-05
293.15 K | 0.0319 | 0.0175 | 0.0256 | 0.0442 | 0.0279 | 0.00944 | 0.00601 | 0.0261 | 0.0127 | 6.85e-05
298.15 K | 0.0425 | 0.0263 | 0.032 | 0.0584 | 0.04 | 0.0134 | 0.00884 | 0.0402 | 0.018 | 0.000119
303.15 K | 0.0542 | 0.0342 | 0.039 | 0.0752 | 0.05 | 0.0207 | 0.0156 | 0.0484 | 0.0255 | 0.000161
308.15 K | 0.0819 | 0.0454 | 0.053 | 0.101 | 0.06 | 0.0261 | 0.021 | 0.0694 | 0.0364 | 0.000248
313.15 K | 0.109 | 0.0598 | 0.0686 | 0.147 | 0.0802 | 0.038 | 0.0294 | 0.0892 | 0.0466 | 0.00038
318.15 K | 0.144 | 0.0754 | 0.0893 | 0.18 | 0.107 | 0.0507 | 0.0397 | 0.115 | 0.0639 | 0.000551

Reference: BigSolDB 2.1
